Source: US20120095739A1, “METHOD FOR DETERMINING THE EFFICACY OF A COMBINATION THERAPY” (priority 2009, published 2012)

Test system: HIV-1
Conditions: double robust estimation; for Weight (drug weight, PI): difference in viral load response (log scale) vs lopinavir after 8 weeks of stable treatment
From the text: Therefore, statistical models were applied to handle these differences. […] E.g.

lopinavir [LPV/r]
Weight (drug weight, PI): 0

atazanavir [ATV/r]
difference in viral load change vs patients taking lopinavir (after 8 weeks of stable treatment): −0.02 log viral load
Weight (drug weight, PI): −0.02
